# Where two headings read alike, the source gives them in different places.
# Columns and labels:
# [1] = Safe dosage based on the toxicity findings; settings: rat, in vivo
# Description: (§1) In a study of prolonged subacute toxicity of Miconazole in rats, among other effects, significant hepatomegalias in females with a dosage of under 30 mg/kg p.o. and in males with a dosage of under 60 mg/kg p.o. were observed.
# Based on these finds a safe dosage for Miconazole is about 10 mg/kg, while a safe dosage for Sertaconzole is about 150 mg/kg, i.e about 15 times higher.
# Chronic toxicity in rats = assay type: in vivo, rat; settings: rat, in vivo; 100 mg/kg or more dosage
# Candida tropicalis = experiment: MIC by two-fold dilution, Candida tropicalis; assay type: cell-based; settings: read-out: Minimum Inhibitory Concentration
# Description: (§2) Minimum Inhibitory Concentrations (MICS) of Sertaconazole and Miconazole against 107 yeasts, 47 dermatophytes and 4 fungi were determined by a two-fold dilution method.
# cutaneous mycosis = experiment: Randomized double blind clinical trials, cutaneous mycosis; settings: 2 % cream (nitrate salts)
# Description: (§3) Human clinical trials were performed with Sertaconazole nitrate and Miconazole nitrate acid addition salts. Randomized double blind trials were carried out with 502 patients suffering from cutaneous mycosis as confirmed by microscopic examination and microbiological culture. 247 patients were treated with 2 % Sertaconazole cream and the remaining 255 patients were treated with 2 % Miconazole cream. All patients received scheduled treatment for 28 days and were followed up for an additional 28 days for possible relapses.
# Trichophyton rubrus = experiment: MIC by two-fold dilution, Trichophyton rubrus; assay type: cell-based; settings: 10 strains, read-out: Minimum Inhibitory Concentration
# Description: as §2
# [2] = test system: Trichophyton menta-grophytes; experiment: MIC by two-fold dilution, Trichophyton mentagrophytes; assay type: cell-based; settings: 30 strains, read-out: Minimum Inhibitory Concentration
# Description: as §2
# Torulopsis glabrata = experiment: MIC by two-fold dilution, Torulopsis glabrata; assay type: cell-based; settings: Nakaseomyces glabratus; 10 strains; read-out: Minimum Inhibitory Concentration
# Description: as §2
# [3] = test system: Trichophyton mcntagrophytes; experiment: Dermal infection in albino female guinea pigs by Trichophyton mentagrophytes; assay type: in vivo, guinea pig; settings: for % microbiological healing / Negative Cultures to Total Cultures: 2% cream
# Source text: (§4) A number of compounds with antimycotic and/or fungicidal properties, which are useful in pharmaceutical compositions, are currently known. These include the commercially successful Miconazole having the formula II [drawing 2] Miconazole has a structure chemically similar to the 1H-imidazole derivative compounds of the invention. Miconazole is effective against a number of yeasts, dermatophytes and fungi. This effectiveness can be measured by culturing these microorganisms in vitro and applying a preparation containing the antimycotic compound, Miconazole. The results of this type of in vitro experiment is expressed in terms of the Minimum Inhibitory Concentration (MIC), i.e. the minimum concentration which inhibits the growth of the microorganism. For example, the MIC for Miconazole against a particular Candida albicans strain is found to be 10.7 micrograms/milliliter. The effectiveness of Miconazole as an antimycotic compound is measured in vivo by applying a suspension containing the drug to the skin of a number of animals and measuring the proportion of animals on which growth of the microorganism is inhibited as a function of time. Typically, after 25 days, about 1/4 of the animals were cured, when treated with a cream containing 2 % by weight Miconazole. Of course, any pharmaceutical preparation for treating a disease in a human must satisfy certain toxicity requirements. […] Toxicity tests have been performed on the IH-imidazole derivative compounds of the invention and on Miconazole and other known compounds having antimycotic properties. In toxicity tests the LD50 (the dose at which 50 % mortality occurs) is measured.
# Dermal infection in albino female guinea pigs by Trichophyton mcntagrophytes has been studied. Animals were distributed in three groups: a) a control group of infected untreated animals; b) a scrtaconazole group of infected and treated animals; and c) a miconazole group of infected and treated animals. Animals were depleted and a 0.4 ml suspension of the microorganism was applied on the depleted area. Treatment with each of the test drugs was made by application of 1 g of 2% cream on the depleted area on the 4th, 5th and 6th day after infection.
# [4] = Acute toxicity (LD50) in rat, three administration routes; settings: in vivo, males
# Description: (§5) Toxicity of Sertaconazole, Microazole and Martin's compounds 1, 2 and 3, as shown below, has been tested by standard methods. Both acute toxicity, subacute toxicity and chronic toxicity were studied
# (§6) Oral, intraperitoneal and subcutaneous acute toxicity of sertaconazole and miconazole have been investigated. LD50 in mouse and rat, male and female, were measured.
# rats = experiment: Prolonged subacute toxicity in rats; assay type: in vivo, rat; settings: p.o.
# Description: as §1
# [5] = Acute toxicity (LD50) in mouse, three administration routes; settings: in vivo
# Source text: as §4, §5, §6
# Dermatophytes, Others = experiment: MIC by two-fold dilution, other dermatophytes; assay type: cell-based; settings: 3 strains; read-out: Minimum Inhibitory Concentration
# Description: as §2
# Trichophyton rubrum = experiment: Randomized double blind clinical trials, Trichophyton rubrum infection; assay type: in vivo, human; settings: 2 % cream (nitrate salts), 28 days treatment
# Description: as §3
# [6] = test system: Scopulariopsis brevi-caulis; experiment: MIC by two-fold dilution, Scopulariopsis brevicaulis; assay type: cell-based; settings: Scopulariopsis; 4 strains; read-out: Minimum Inhibitory Concentration
# Description: as §2
# Gram-positive germs = experiment: MIC by two-fold dilution, Gram-positive germs; assay type: cell-based; settings: 21 strains; read-out: Minimum Inhibitory Concentration
# Candida albicans [7] = experiment: MIC by two-fold dilution, Candida albicans; assay type: cell-based
# Source text: as §4, §2
# Candida albicans [8] = experiment: Vaginal infection by Candida albicans in female mice; assay type: in vivo; settings: seven days after infection
# Source text: Besides the above in vivo experiments vaginal infection by Candida albicans was studied in female mice. Standard methods were used. […] Similar results were found in experiments where repeated dosages of active compound were used after infection. These in vivo results confirmed the surprising speed of action of Sertaconazole in comparison to the prior art compounds.
# Microsporum canis = experiment: MIC by two-fold dilution, Microsporum canis; assay type: cell-based; settings: 4 strains, read-out: Minimum Inhibitory Concentration
# Description: as §2
# Candida s.p. = experiment: MIC by two-fold dilution, Candida s.p.; assay type: cell-based; settings: Candida; 15 strains; read-out: Minimum Inhibitory Concentration
# Description: as §2
# C. pseudotropicalis 21 = experiment: MIC, comparative in vitro testing against Martin compounds; assay type: cell-based; settings: Kluyveromyces marxianus, 21; Sabouraud medium, reading time 48 h; SZ vs M4; read-out: MIC
# Description: (§7) Minimum Inhibitory Concentrations (MICS) of Sertaconazole were also measured in comparison to four of the compounds described in the Martin Patent, including a compound, referred to herein as Martin Compound 1, which has the same structure as Sertaconazole, expect that the sulfur in the benzothiophene ring is replaced by an oxygen.
# (§8) The results of comparative in vitro testing of Sertaconazole and these four Martin compounds are shown in the following Table II against 16 microorganisms. The reading time is the time interval from the time of inoculation to the time of measurement.
# C. albicans 14 = experiment: as above; assay type: cell-based; settings: Candida albicans, 14, 48 h, Casitone medium, reading time 48 h; SZ vs M4
# Description: as §7, §8
# C. stellatoidea 36232 = experiment: as above; assay type: cell-based; settings: Candida albicans, 36232, 48 h, reading time 48 h, SZ vs M4
# Description: as §7, §8
# C. albicans 32 = experiment: as above; assay type: cell-based; settings: Candida albicans, 32; YNB medium, reading time 48 h; SZ vs M4; read-out: MIC
# Description: as §7, §8
# C. albicans 31 = experiment: as above; assay type: cell-based; settings: Candida albicans, 31; YNB medium, reading time 48 h; SZ vs M4; read-out: MIC
# Description: as §7, §8
# C. krusei 24 = experiment: as above; assay type: cell-based; settings: Pichia kudriavzevii, 24, 48 h, reading time 48 h, SZ vs M4, read-out: MIC
# Description: as §7, §8
# C. albicans ATCC E-10231 = experiment: as above; assay type: cell-based; settings: Candida albicans, ATCCE10231; Casitone medium, reading time 48 h; SZ vs M4; read-out: MIC
# Description: as §7, §8
# C. guillermondii = experiment: as above; assay type: cell-based; settings: 48 h, reading time 48 h, SZ vs M4, read-out: MIC
# Description: as §7, §8
# C. parapsilosis 19 = experiment: as above; assay type: cell-based; settings: 19, 48 h, reading time 48 h, SZ vs M4
# Description: as §7, §8
# C. albicans 15 = experiment: as above; assay type: cell-based; settings: Candida albicans, 15, 48 h, Casitone medium, reading time 48 h; SZ vs M4
# Description: as §7, §8
# C. tropicalis 25 = experiment: as above; assay type: cell-based; settings: Candida tropicalis, 25, 48 h, YNB medium, reading time 48 h; SZ vs M4
# Description: as §7, §8
# 16 microorganisms = experiment: Geometric mean of all MIC measurements, comparative in vitro testing; assay type: cell-based; settings: 48 h, SZ vs M4, reading time 48 h; read-out: Geometric means of MIC
# Description: as §7, §8
# [9] = Acute toxicity in Swiss mice i.p.; settings: mouse, in vivo, ip
# Source text: Such signs included convulsions and Straub tail(vertical righting of the tail).
compound,measurement,setting,value
"Clc1ccc(COC(Cn2ccnc2)c2ccc(Cl)cc2Cl)c(Cl)c1 (stereo not shown) [Miconazole, reference compound]",NOAEL,[1],~10 mg/kg
same,mortality,Chronic toxicity in rats,32%
same,MIC,Candida tropicalis,5.6 µg/mL
same,cases of contact dermatitis,cutaneous mycosis,5 cases
same,MIC,Trichophyton rubrus,0.3 µg/mL
same,MIC,[2],2.8 µg/mL
same,MIC,Torulopsis glabrata,1.1 µg/mL
same,% microbiological healing,[3]; 18 days postinfection,6%
same,Negative Cultures to Total Cultures,[3]; 18 days postinfection,3/48
same,% microbiological healing,[3]; 25 days postinfection,28%
same,Negative Cultures to Total Cultures,[3]; 25 days postinfection,13/48
same,% microbiological healing,[3]; 32 days postinfection,44%
same,Negative Cultures to Total Cultures,[3]; 32 days postinfection,21/48
same,proportion of animals cured,"[3]; after 25 days, cream containing 2 % by weight",about 1/4
same,LD50,"[4]; ip, intraperitoneal",1180 mg/kg
same,LD50,[4]; oral,920 mg/kg
same,LD50,"[4]; sc, subcutaneous",> 5000 mg/kg
same,dosage with significant hepatomegalias,rats; females,under 30 mg/kg
same,dosage with significant hepatomegalias,rats; males,under 60 mg/kg
same,LD50,"[5]; ip, intraperitoneal",~600 mg/kg
same,LD50,"[5]; ip, intraperitoneal, males",662 mg/kg
same,LD50,[5]; po,~2500 mg/kg
same,LD50,"[5]; po, males",2560 mg/kg
same,LD50,"[5]; sc, subcutaneous",> 5000 mg/kg
same,LD50,"[5]; sc, subcutaneous, males",> 5000 mg/kg
same,MIC,"Dermatophytes, Others",4 µg/mL
same,effectiveness against Trichophyton rubrum,Trichophyton rubrum,79%
same,MIC,[6],32 µg/mL
same,MIC,Gram-positive germs,0.88 µg/mL
same,MIC,"Candida albicans [7]; Candida albicans, 52 strains, read-out: Minimum Inhibitory Concentration",10.7 µg/mL
same,MIC,"Candida albicans [7]; a particular Candida albicans strain, read-out: MIC",10.7 µg/mL
same,animals healed,Candida albicans [8],12.5%
same,MIC,Microsporum canis,2 µg/mL
same,MIC,Candida s.p.,0.95 µg/mL
"Clc1ccc(C(Cn2ccnc2)OCc2coc3cc(Cl)cc(Cl)c23)c(Cl)c1 (stereo not shown) [Martin compound 4, reference compound]",MIC,C. pseudotropicalis 21,0.03 µg/mL
same,MIC,C. albicans 14,0.5 µg/mL
same,MIC,C. stellatoidea 36232; Casitone medium,0.06 µg/mL
same,MIC,C. stellatoidea 36232; Sabouraud medium,0.5 µg/mL
same,MIC,C. stellatoidea 36232; YNB medium,0.5 µg/mL
same,MIC,C. albicans 32,8 µg/mL
same,MIC,C. albicans 31,8 µg/mL
same,MIC,C. krusei 24; Casitone medium,0.5 µg/mL
same,MIC,C. krusei 24; YNB medium,0.5 µg/mL
same,MIC,C. albicans ATCC E-10231,0.5 µg/mL
same,MIC,C. guillermondii; Casitone medium,0.5 µg/mL
same,MIC,C. guillermondii; YNB medium,0.5 µg/mL
same,MIC,C. parapsilosis 19; Sabouraud medium,0.5 µg/mL
same,MIC,C. parapsilosis 19; YNB medium,0.5 µg/mL
same,MIC,C. albicans 15,0.03 µg/mL
same,MIC,C. tropicalis 25,8 µg/mL
same,MIC,16 microorganisms,0.518 µg/mL
same,LD50,[9],< 1000 mg/kg
